From US20250352482A1, “AMORPHOUS DOSAGE FORM CONTAINING EBSELEN” (SOUND PHARMACEUTICALS INC., priority 2022, published 2025) come the findings set out here.

The conditions of the data set: minipig, in vivo.

Procedure: Method: The purpose of this study was to determine the pharmacokinetics of ebselen and its metabolites in male and female bama mini-pigs following twice daily (BID) oral administration of two test formulations, control ebselen capsules (Formulation 1) and ebselen-ASD/HME capsules (Formulation 2) at 200 mg/animal for 2.5 days. Three male and three female naïve Bama mini-pigs were assigned to this study. In phase 1, animals received five oral doses (BID on day 1, BID on day 2 and QD on day 3) of Formulation 1: each dose comprised control ebselen capsules (1 (Ebselen capsule, 200 mg+3 placebo capsules). After one week wash out period, the same animals received five oral doses (BID on day 1, BID on day 2 and QD on day 3) of Formulation 2: each dose comprised four Ebselen ASD/HME capsules (Formulation 2), 50 mg each. In each phase, there were 12 hour intervals between dosing. Blood samples were collected at 0.5, 1, 2, 3, 4, 6, 8 and 12 hours post the first and fifth dosing. Concentrations of ebselen, and ebselen glucuronide metabolite in plasma samples were determined by LC-MS/MS.

`O=c1c2ccccc2[se]n1-c1ccccc1` [ebselen, 2-Phenyl-1,2-benzoselenazol-3 (2H)-one]: the “accumulation on systemic exposure to ebselen” value was “No obvious accumulation”.
